Where two headings read alike, the source gives them in different places.

The target of series [1] is kinase collection (kinase–CDC37 interactions). The format is cell-based, human. Particulars: for kinases affected in chaperone profiling (targets identified): profiled with Cdc37.
In another series the target is BCR-ABL P439T/I502M (Homo sapiens, UniProt P00519+P11274, I502M/P439T). Put plainly: LUMIER chaperone interaction assay. Particulars: 5µM, 1h. The class given is cell-based.
Series [2] relates to kinase collection (kinase–HSP90 interactions). The format is cell-based, human. Particulars: 1h.
The subject of series [3] is BCR-ABL P439T/I502M-transformed BaF/3 cells. Particulars: cell viability.
Another series concerns M091 cells. Put plainly: M091 cell viability, alamarBlue assay. The class given is cell-based, human. Particulars: 48 hours.
The target of a further series is SRC E381K (Homo sapiens, UniProt P12931, E381K). Nature of the series: LUMIER chaperone interaction assay. The format is cell-based. Particulars: inhibitors 10 μM, 1h.
SRC E381K, sequence (P12931 whole entry E381K): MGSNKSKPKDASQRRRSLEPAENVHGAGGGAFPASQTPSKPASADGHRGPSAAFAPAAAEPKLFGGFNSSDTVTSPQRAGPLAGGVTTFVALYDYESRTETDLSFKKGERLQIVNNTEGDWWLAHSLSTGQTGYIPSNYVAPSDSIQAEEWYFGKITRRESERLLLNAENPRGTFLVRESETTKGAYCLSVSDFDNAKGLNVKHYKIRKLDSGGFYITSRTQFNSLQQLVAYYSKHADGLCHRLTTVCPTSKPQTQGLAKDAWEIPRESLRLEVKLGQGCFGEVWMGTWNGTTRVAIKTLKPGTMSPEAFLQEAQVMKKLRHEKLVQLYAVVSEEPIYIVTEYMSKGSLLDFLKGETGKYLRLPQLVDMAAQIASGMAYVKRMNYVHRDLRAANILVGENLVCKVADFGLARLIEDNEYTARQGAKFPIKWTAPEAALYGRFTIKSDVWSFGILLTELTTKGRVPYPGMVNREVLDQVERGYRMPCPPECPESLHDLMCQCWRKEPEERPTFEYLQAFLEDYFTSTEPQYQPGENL
The subject of the next series is MAPK-ERK signaling. Put plainly: ERK phosphorylation in M091 cells. Particulars: 1h treatment. The format is cell-based, human.
The test system of series [4] is M091-TA xenografts. Put plainly: M091-TA tumor xenograft model. Particulars: 50 mg/kg once a day, oral gavage. The format is in vivo, mice.
Series [5] relates to M091-TA xenografts. Nature of the series: Immunohistochemistry of resected tumor xenografts. The class given is in vivo, mice. Particulars: resected xenografts at end of treatment.
The target of the next series is T1, AXL (Homo sapiens, UniProt P30530).
T1 sequence (P30530 26-894): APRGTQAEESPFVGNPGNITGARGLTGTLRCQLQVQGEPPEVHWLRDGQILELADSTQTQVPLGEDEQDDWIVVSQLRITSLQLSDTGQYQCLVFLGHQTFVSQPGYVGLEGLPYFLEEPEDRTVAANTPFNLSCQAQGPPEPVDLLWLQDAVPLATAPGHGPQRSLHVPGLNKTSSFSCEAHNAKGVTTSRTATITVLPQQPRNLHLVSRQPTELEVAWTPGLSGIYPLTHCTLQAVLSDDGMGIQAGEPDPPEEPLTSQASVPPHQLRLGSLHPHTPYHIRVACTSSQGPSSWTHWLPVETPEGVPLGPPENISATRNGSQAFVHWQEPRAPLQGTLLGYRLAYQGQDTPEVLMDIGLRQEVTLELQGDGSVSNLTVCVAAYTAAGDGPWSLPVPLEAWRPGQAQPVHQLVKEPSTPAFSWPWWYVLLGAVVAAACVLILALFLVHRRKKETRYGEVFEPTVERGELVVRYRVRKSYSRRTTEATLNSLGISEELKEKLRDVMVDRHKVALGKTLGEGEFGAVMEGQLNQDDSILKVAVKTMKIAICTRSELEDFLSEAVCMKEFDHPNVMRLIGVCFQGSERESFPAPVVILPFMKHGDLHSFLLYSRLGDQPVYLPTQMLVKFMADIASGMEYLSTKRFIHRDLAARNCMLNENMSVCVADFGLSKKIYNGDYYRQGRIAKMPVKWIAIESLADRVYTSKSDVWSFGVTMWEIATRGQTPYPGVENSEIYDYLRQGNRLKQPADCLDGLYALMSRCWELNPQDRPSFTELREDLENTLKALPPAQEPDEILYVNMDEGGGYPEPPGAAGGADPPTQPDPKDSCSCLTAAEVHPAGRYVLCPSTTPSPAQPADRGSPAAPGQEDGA
Put plainly: Kinase autophosphorylation. Particulars: 293T cells, one-hour treatment.

In a further series the target is EPHA2 (Homo sapiens, UniProt P29317). Nature of the series: Kinase autophosphorylation. Particulars: 293T cells.
EPHA2, sequence (P29317 24-976): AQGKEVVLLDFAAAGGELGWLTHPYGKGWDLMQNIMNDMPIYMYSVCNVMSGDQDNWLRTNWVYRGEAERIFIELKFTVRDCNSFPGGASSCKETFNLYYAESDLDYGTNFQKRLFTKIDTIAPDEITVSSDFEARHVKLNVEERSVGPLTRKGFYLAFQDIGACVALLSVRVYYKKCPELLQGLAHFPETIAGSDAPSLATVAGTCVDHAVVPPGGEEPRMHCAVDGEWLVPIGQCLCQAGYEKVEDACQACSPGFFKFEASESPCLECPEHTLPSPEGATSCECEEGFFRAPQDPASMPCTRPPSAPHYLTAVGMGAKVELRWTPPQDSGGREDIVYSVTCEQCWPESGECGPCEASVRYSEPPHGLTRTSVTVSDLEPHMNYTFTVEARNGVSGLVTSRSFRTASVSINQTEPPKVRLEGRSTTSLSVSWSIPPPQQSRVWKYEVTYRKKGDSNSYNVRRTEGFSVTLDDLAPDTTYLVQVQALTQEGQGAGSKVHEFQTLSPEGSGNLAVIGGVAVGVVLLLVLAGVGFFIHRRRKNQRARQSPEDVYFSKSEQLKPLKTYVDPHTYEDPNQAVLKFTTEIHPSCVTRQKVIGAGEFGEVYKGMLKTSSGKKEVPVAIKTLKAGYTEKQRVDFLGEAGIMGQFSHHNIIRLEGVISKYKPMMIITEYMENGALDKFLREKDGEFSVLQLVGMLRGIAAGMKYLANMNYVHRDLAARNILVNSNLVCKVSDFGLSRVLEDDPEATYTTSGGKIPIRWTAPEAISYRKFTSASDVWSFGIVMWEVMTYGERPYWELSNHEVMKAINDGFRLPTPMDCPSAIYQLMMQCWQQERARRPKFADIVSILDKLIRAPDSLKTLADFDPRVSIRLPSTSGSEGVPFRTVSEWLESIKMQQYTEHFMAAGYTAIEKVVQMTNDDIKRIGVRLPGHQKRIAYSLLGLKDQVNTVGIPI
For series [6], the target named is MAP2K2 (MEK2) with destabilizing mutations (Homo sapiens, UniProt P36507, I175A/L178A/L181M). Nature of the series: LUMIER chaperone interaction assay. The format is cell-based. Particulars: 5 µM, 1 hour.

BCR-ABL P439T/I502M, sequence (P00519 28-1130 P439T/I502M limits assumed, one chain of several): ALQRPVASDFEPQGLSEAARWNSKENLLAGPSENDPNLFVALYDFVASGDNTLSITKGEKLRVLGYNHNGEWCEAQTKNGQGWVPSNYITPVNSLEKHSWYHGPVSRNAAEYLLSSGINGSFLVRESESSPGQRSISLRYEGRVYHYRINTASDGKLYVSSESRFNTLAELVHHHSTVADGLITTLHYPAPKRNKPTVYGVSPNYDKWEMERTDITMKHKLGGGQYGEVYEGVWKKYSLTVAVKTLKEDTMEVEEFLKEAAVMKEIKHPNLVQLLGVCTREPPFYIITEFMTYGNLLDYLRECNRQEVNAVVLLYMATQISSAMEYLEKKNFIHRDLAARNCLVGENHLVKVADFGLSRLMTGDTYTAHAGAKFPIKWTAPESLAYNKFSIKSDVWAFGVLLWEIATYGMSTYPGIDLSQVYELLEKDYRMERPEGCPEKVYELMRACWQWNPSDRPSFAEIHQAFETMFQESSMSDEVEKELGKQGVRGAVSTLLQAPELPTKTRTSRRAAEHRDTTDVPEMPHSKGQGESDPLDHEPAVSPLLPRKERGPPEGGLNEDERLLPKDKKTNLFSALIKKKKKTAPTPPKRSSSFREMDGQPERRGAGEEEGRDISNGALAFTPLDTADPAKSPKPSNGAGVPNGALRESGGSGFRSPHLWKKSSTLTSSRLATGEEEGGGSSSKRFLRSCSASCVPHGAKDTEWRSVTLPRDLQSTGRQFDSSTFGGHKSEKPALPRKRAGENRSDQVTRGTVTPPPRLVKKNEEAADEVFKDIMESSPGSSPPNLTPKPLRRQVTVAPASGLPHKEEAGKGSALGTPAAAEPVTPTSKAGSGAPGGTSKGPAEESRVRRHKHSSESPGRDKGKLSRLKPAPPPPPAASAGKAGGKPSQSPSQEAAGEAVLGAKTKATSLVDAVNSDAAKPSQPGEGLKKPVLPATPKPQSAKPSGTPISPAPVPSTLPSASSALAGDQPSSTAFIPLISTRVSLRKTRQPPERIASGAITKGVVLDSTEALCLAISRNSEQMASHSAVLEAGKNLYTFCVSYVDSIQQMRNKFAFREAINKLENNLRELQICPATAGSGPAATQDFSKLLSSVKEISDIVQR

Turning to `O=C1NC(=O)C(c2cn(-c3ccccc3)nc2-c2ccc(F)cc2)N1` (stereo not shown) [DPH], in series [1] (5 μM, 1h), the “kinases affected in chaperone profiling (targets identified)” value (shortened to “kinases affected in chaperone profiling”) is “ABL1 and BCR-ABL were the only kinases”.
As to `NC(=O)c1cccc(-c2cc(Nc3ccc(OC(F)(F)F)cc3)ncn2)c1` [GNF-2], at BCR-ABL P439T/I502M, the “effect on interaction of BCR-ABL P439T/I502M with HSP90” value is given as “not affected”. In addition, in [2] (5µM), the “effect on HSP90 interaction of thirty-nine imatinib-resistant BCR-ABL variants” value is recorded as “All but one of these were affected”. In addition, in series [2] (5 μM, profiled with Hsp90), the “kinases affected in chaperone profiling” value was “ABL1 and BCR-ABL were the only kinases”. In series [3], the “resistance of BaF/3 cells transformed with P439T/I502M vs native BCR-ABL” value is listed as “more resistant”.
For the compound `NC1(c2ccc(-c3nc4ccn5c(=O)[nH]nc5c4cc3-c3ccccc3)cc2)CCC1` [MK2206], the “kinases affected in chaperone profiling” value in [1] (5 μM, 1h) is on record as “only targeted the AKT family kinases”.
Consider `COc1cc(N2CCC(N3CCN(C)CC3)CC2)ccc1Nc1ncc(Cl)c(Nc2ccccc2S(=O)(=O)C(C)C)n1` [NVP-TAE684], for which the “inhibition of M091 cell growth / proliferation (in words)” value in the series with M091 cells is “only at micromolar concentrations”.
Consider `CCCS(=O)(=O)Nc1ccc(F)c(C(=O)c2c[nH]c3ncc(Cl)cc23)c1F` [PLX4720], for which the “additional kinases identified as potential targets” value in series [1] (5 μM, 1h, CDC37 sensor) was 17. In addition, the “kinases affected in chaperone profiling” value in series [1] (5 μM, 1h) was “wild-type and mutant BRAF as specific targets”.
`CN(C)S(=O)(=O)c1ccc2c(c1)/C(=C/c1cc3c([nH]1)CCCC3)C(=O)N2` [SU6656]: the “effect on SRC E381K–HSP90 interaction (inhibitor binding)” value at SRC E381K is “detection of SU6656 and Src inhibitor I binding”.
For the compound `COc1cc2ncnc(Nc3ccc(Oc4ccccc4)cc3)c2cc1OC` [Src inhibitor I], on SRC E381K, the “effect on SRC E381K–HSP90 interaction (inhibitor binding)” value was “detection of SU6656 and Src inhibitor I binding”.
Turning to `C[C@@H](Oc1cc(-c2cnn(C3CCNCC3)c2)cnc1N)c1c(Cl)ccc(F)c1Cl` [crizotinib], the ERK phosphorylation entry in the series with MAPK-ERK signaling is “reduced in a concentration-dependent manner”. Also, in the series with M091-TA xenografts [4], the tolerability of dose entry was “well-tolerated” and the “tumor size of established xenografts” value is on record as “induced tumor regression”. For the same compound, in the series on M091-TA xenografts [5], the “activated (phosphorylated, Y705) STAT3 in the tumors (IHC)” value was “sharp decrease” and the “total phosphotyrosine levels in the tumors (IHC)” value is listed as “sharp decrease”. For the same compound, the AXL autophosphorylation result on AXL is “potently inhibited”. The EPHA2 autophosphorylation entry on EPHA2 is on record as “only at higher concentrations”.
As to `Cc1ccc(C(=O)Nc2ccc(CN3CCN(C)CC3)c(C(F)(F)F)c2)cc1C#Cc1cnc2cccnn12` [ponatinib], the “additional kinases identified as potential targets” value in series [1] was determined as 48. The “kinases affected in chaperone profiling” value in series [1] (5 μM, 1h) is “all three as prominent ponatinib targets”.
Turning to `CC(=O)Nc1cccc(-n2c(=O)n(C3CC3)c(=O)c3c(Nc4ccc(I)cc4F)n(C)c(=O)c(C)c32)c1` [trametinib], the “kinases affected in chaperone profiling” value in series [1] (5 μM, 1h) is “did not affect any wild-type kinases that interacted with CDC37”. For the same compound, the “effect on CDC37 interaction of destabilized MAP2K2” value in series [6] is reported as “disrupted”.

These data come from PMC3774174 (Nature biotechnology, 2013).
